Read-outs that look alike come from different tables or passages of the source. One block for each molecule: values may come before it.
What was measured:
Format in all cases: physicochemical
[1] = Foaming abilities, 1% compound solutions shaken by hand; set-up: key to FOAM: −: no foam formation; +: low foam formation; ++: moderate foam formation; +++: strong foam formation
Description: Foaming abilities were evaluated at room temperature by shaking 1% compound solutions (2 ml) of pH 3, 7, and 12 by hand for 10 s. The pH of each solution was assessed with a pH meter at room temperature. […] The foam heights at the initial time were compared to one another after which the foaming abilities were classified according to no foam formation (−), low foam formation (+), moderate foam formation (++), and strong foam formation (+++).

[2] = Surface tension measurements, Wilhelmy plate (surface tension, CMC)
Description: Surface tension measurements were performed with a Biolin Scientific Sigma701 automatic tension meter equipped with a Wilhelmy plate made of platinum (±0.5 mN/m). […] The number of experimental points is related to the compound's/surfactant's solubility and available quantity. All compound/surfactant solutions were allowed to stand 12 h before being measured. The platinum plate was thoroughly cleaned with demi water and flame-dried before each measurement. The CMC of each compound/surfactant was determined at the minimum of a breakpoint of a conventional plot of surface tension versus compound/surfactant concentration. DCMC was obtained by acquiring the surface tension at the CMC. The pC20 value was determined by taking the minus log of the concentration compound/surfactant at a surface tension of 52 mN/m.

[3] = Solubility in water (excess of compound in 4 ml demi water); conditions: for Solubility: Table E5.2, water
Description: Solubility is preferably solubility in aqueous solution, more preferably solubility in water, most preferably solubility in demineralised water. A skilled person knows how to assess such solubility.
Solubility in water was determined by preparing mixtures of an excess of compound dispersed in 4 ml demi water using a vortex at maximum speed for 1 min. […] 1 ml of the mixture was concentrated in vacuo to yield a solid. The mass of the solid was determined in mg to calculate the solubility in percentage by dividing by ten.

[4] = Foaming power and stability, Ultra-Turrax, 0.4% aq. surfactant; conditions: Table E5.2; for Foamability (mL) after (min) 1: foam volume after 1 min; for Foamability (mL) after (min) 5: foam volume after 5 min; for Foamability (mL) after (min) 10: foam volume after 10 min
Description: Foaming power was also tested at room temperature with 5 mL of 0.4% aq. surfactant (20 mg) solution in a 50 mL measuring cylinder. After performing the Ultra-Turrax (a registered trademark for a high-performance dispersing instrument) for 20 seconds (8000 rpm), the initial height of the foam was measured for foam height. (volume in mL). Every time step of, 1, 3, 5, 10, 30, 60 minutes was noted. In addition, after 24 hours the stability was checked. Particularly, foaming power and stability of the surfactants were performed using an IKA Ultra-Turrax T25 with an 18 G dispersing element. At room temperature, an aqueous solution of 5 mL 0.4% surfactant in a 50 mL measuring cylinder (2.20 cm diameter) was mixed with the Ultra-Turrax for 20 seconds at 8000 rpm. The foam height (volume in mL) was denoted for 0, 1, 3, 5, 10, 30, 60 min and 24 hours. In addition, after 24 hours the stability was checked.

[5] = Table E2, room temperature, pH 7
[6] = Table E2, galactaric acid amides
[7] = Table E4, room temperature, pH 7
[8] = Table E5, room temperature, pH 7

Molecule: CC(C)CNC(=O)[C@H](O)[C@@H](O)[C@@H](O)CO [Compound 05, 1-(N-isobutyl)-L-arabinonamide]
FOAM ([1]; Table E1): −
stable surface tension value at maximal concentration (micelle formation) ([2]; maximal concentration in water, means no micelles were formed): do not reach a stable surface tension value
solubility in water, in words [3]: soluble
SOLUBILITY (H2O) ([3]; Table E1, arabinonamides): Yes

Molecule: CCCCNC(=O)[C@H](O)[C@@H](O)[C@@H](O)[C@H](O)C(=O)O [Compound 09]
FOAM ([1]; Table E2): −
SURFACE TENSION [2, 5]: 50.78 mN/m
solubility in H2O [3]: 6%
SOLUBILITY (H2O) [3, 6]: >6%

Molecule: CCCCCCCCCCNC(=O)[C@H](O)[C@@H](O)[C@@H](O)[C@H](O)C(=O)O [Compound 12]
FOAM ([1]; Table E2): ++
solubility in water, in words [3]: relatively low
SOLUBILITY (H2O) [3, 6]: <1%

Molecule: CCCCCCCCCCCCNC(=O)[C@H](O)[C@@H](O)[C@@H](O)[C@H](O)C(=O)O [Compound 13]
FOAM ([1]; Table E2): −
solubility in water, in words [3]: relatively low

Molecule: CCCCCCCCCCCCN(C)C[C@H](O)[C@@H](O)[C@@H](O)CO [Compound 25, N-methyl-N-dodecyl-L-arabinamine]
Foamability (mL) after (min) 1 [4]: 5 mL
Foamability (mL) after (min) 5 [4]: 5 mL
Foamability (mL) after (min) 10 [4]: 4 mL
FOAM ([1]; Table E4, pH > 7): ++
CMC (%) ([2]; Table E4): 0.1%
SURFACE TENSION [2, 7]: 26.2 mN/m
CMC (%) ([2]; Table E5.2): 0.1%
Surface tension (nM/m) ([2]; Table E5.2): 26.2 mN/m
SOLUBILITY (H2O) ([3]; Table E4): 0.06%
Solubility [3]: 0.06%

Molecule: CCCCCCCCCCN(C)C[C@H](O)[C@@H](O)[C@@H](O)[C@H](O)C(=O)O [Compound 25b, N-methyldecyl-D-galactaric acid amine]
Foamability (mL) after (min) 1 [4]: 6 mL
Foamability (mL) after (min) 5 [4]: 6 mL
Foamability (mL) after (min) 10 [4]: 5 mL
CMC (%) ([2]; Table E5.2): 0.06%
Surface tension (nM/m) ([2]; Table E5.2): 32.85 mN/m
Solubility [3]: 2%

Molecule: CCCCCCNC[C@H](O)[C@@H](O)[C@@H](O)CO [Compound 27, N-hexyl-L-arabinamine, reference compound]
FOAM ([1]; Table E4, pH not given): −
CMC (%) ([2]; Table E4): 0.5%
SURFACE TENSION [2, 7]: 30.3 mN/m
SOLUBILITY (H2O) ([3]; Table E4): 0.75%
Solubility [3]: 0.75%

Molecule: CCCCCCCCNC[C@H](O)[C@@H](O)[C@@H](O)CO [Compound 28, N-octyl-L-arabinamine, reference compound]
FOAM ([1]; Table E4, pH not given): −

Molecule: CCCCCCCCCCCCNC[C@H](O)[C@@H](O)[C@@H](O)[C@H](O)C(=O)O [Compound 34, N-dodecyl-D-galacturonic acid amine, reference compound]
FOAM ([1]; Table E5, pH not given): −
CMC (%) ([2]; Table E5): 0.1%
SURFACE TENSION [2, 8]: 30.7 mN/m
SOLUBILITY (H2O) ([3]; Table E5): 0.3%
Solubility [3]: 0.3%

Molecule: CCCCCCCCCCCCOS(=O)(=O)[O-].[Na+] [SLS, reference compound]
concentration at which the surface tension is reached [2]: 0.02%

Results, then the molecule that gave them:

foaming behaviour / foam creation, in words [1]: does not create foam
Molecule: 1-(N-(decanoic acid))-L-arabinonamide [Compound 06]

FOAM ([1]; Table E2): −
SURFACE TENSION [2, 5]: 49.43 mN/m
solubility in H2O [3]: 2.5%
SOLUBILITY (H2O) [3, 6]: ~2.5%
Molecule: CCCCCCNC(=O)[C@H](O)[C@@H](O)[C@@H](O)[C@H](O)C(=O)O [Compound 10]

foam stability compared with SLES [1]: quite similar
foaming behaviour / foam creation, in words [1]: Foam appears
FOAM ([1]; Table E2): ++
SURFACE TENSION [2]: 26 mN/m
concentration at which the surface tension is reached [2]: 0.29%
CMC (%) ([2]; Table E2): 0.17%
SURFACE TENSION [2, 5]: 26.0 mN/m
solubility in H2O [3]: 2%
SOLUBILITY (H2O) [3, 6]: ~2.0%
Molecule: CCCCCCCCNC(=O)[C@H](O)[C@@H](O)[C@@H](O)[C@H](O)C(=O)O [Compound 11]

Foamability (mL) after (min) 1 [4]: 2 mL
Foamability (mL) after (min) 5 [4]: 0.2 mL
Foamability (mL) after (min) 10 [4]: 0 mL
FOAM ([1]; Table E4, pH > 7): +
CMC (%) ([2]; Table E4): 2%
SURFACE TENSION [2, 7]: 31.4 mN/m
CMC (%) ([2]; Table E5.2): 2%
Surface tension (nM/m) ([2]; Table E5.2): 31.4 mN/m
solubility in H2O [3]: 30%
SOLUBILITY (H2O) ([3]; Table E4): 30%
Solubility [3]: 30%
Molecule: CCCCCCN(C)C[C@H](O)[C@@H](O)[C@@H](O)CO [Compound 23, N-methyl-N-hexyl-L-arabinamine]

Foamability (mL) after (min) 1 [4]: 5 mL
Foamability (mL) after (min) 5 [4]: 4.5 mL
Foamability (mL) after (min) 10 [4]: 4 mL
FOAM ([1]; Table E4, pH > 7): +
CMC (%) ([2]; Table E4): 0.25%
SURFACE TENSION [2, 7]: 28.7 mN/m
CMC (%) ([2]; Table E5.2): 0.25%
Surface tension (nM/m) ([2]; Table E5.2): 28.7 mN/m
SOLUBILITY (H2O) ([3]; Table E4): 0.9%
Solubility [3]: 0.9%
solubility, earlier measurements ([3]; earlier measurements, initially found): 0.25%
Molecule: CCCCCCCCN(C)C[C@H](O)[C@@H](O)[C@@H](O)CO [Compound 24, N-methyl-N-octyl-L-arabinamine]

Foamability (mL) after (min) 1 [4]: 3 mL
Foamability (mL) after (min) 5 [4]: 3 mL
Foamability (mL) after (min) 10 [4]: 2 mL
CMC (%) ([2]; Table E5.2): 0.2%
Surface tension (nM/m) ([2]; Table E5.2): 33.7 mN/m
Solubility [3]: 0.1%
Molecule: CCCCCCCCCCN(C)C[C@@H](O)[C@@H](O)[C@H](O)CO [Compound 24b, N-methyl-N-decyl-L-arabinamine]

FOAM ([1]; Table E4, pH not given): −
CMC (%) ([2]; Table E4): 2%
SURFACE TENSION [2, 7]: 45.8 mN/m
SOLUBILITY (H2O) ([3]; Table E4): 6.67%
Molecule: CCCCNC[C@H](O)[C@@H](O)[C@@H](O)CO [Compound 26, N-butyl-L-arabinamine, reference compound]

FOAM ([1]; Table E4, pH not given): −
CMC (%) ([2]; Table E4): 1%
SURFACE TENSION [2, 7]: 56.1 mN/m
SOLUBILITY (H2O) ([3]; Table E4): 1%
Molecule: O=C(O)CCCCCCCCCCNC[C@H](O)[C@@H](O)[C@@H](O)CO [Compound 29]

Foamability (mL) after (min) 1 [4]: 0.2 mL
Foamability (mL) after (min) 5 [4]: 0 mL
Foamability (mL) after (min) 10 [4]: 0 mL
FOAM ([1]; Table E5, PH > 7): ++
CMC (%) ([2]; Table E5): 2%
SURFACE TENSION [2, 8]: 60.6 mN/m
Surface tension (nM/m) ([2]; Table E5.2): 42.1 mN/m
SOLUBILITY (H2O) ([3]; Table E5): 40%
Solubility [3]: 40%
Molecule: CCCCCCN(C)C[C@H](O)[C@@H](O)[C@@H](O)[C@H](O)C(=O)O [Compound 30, N-methyl-N-hexyl-D-galacturonic acid amine]

Foamability (mL) after (min) 1 [4]: 4.5 mL
Foamability (mL) after (min) 5 [4]: 5 mL
Foamability (mL) after (min) 10 [4]: 3 mL
FOAM ([1]; Table E5, pH not given): +++
stability in foam ([1]; whole pH range): enormous stability
SURFACE TENSION [2]: 33.9 mN/m
CMC (%) ([2]; Table E5): 0.1%
SURFACE TENSION [2, 8]: 33.9 mN/m
CMC (%) ([2]; Table E5.2): 0.1%
Surface tension (nM/m) ([2]; Table E5.2): 33.9 mN/m
critical micelle concentration (CMC) ([2]; running text b302): 0.01%
solubility in H2O [3]: 1%
SOLUBILITY (H2O) ([3]; Table E5): 1%
Solubility [3]: 1%
Molecule: CCCCCCCCCCCCN(C)C[C@H](O)[C@@H](O)[C@@H](O)[C@H](O)C(=O)O [Compound 32, N-methyl-N-dodecyl-D-galacturonic acid amine]

FOAM ([1]; Table E5, pH not given): −
CMC (%) ([2]; Table E5): 1%
SURFACE TENSION [2, 8]: 45.1 mN/m
solubility in H2O [3]: 1%
SOLUBILITY (H2O) ([3]; Table E5): 1%
Solubility [3]: 1%
Molecule: CCCCCCCCNC[C@H](O)[C@@H](O)[C@@H](O)[C@H](O)C(=O)O [Compound 33, N-octyl-D-galacturonic acid amine, reference compound]

Solubility [3]: 0.55%
Molecule: CCCCCCCCCCNC[C@H](O)[C@@H](O)[C@@H](O)[C@H](O)C(=O)O [Compound 33b, N-decyl-D-galacturonic acid amine]

FOAM ([1]; Table E5, pH not given): −
SOLUBILITY (H2O) ([3]; Table E5): 0.9%
Molecule: CCCCCCCC(C)NC[C@H](O)[C@@H](O)[C@@H](O)[C@H](O)C(=O)O (stereo partly drawn) [Compound 35, N-(1-methyloctyl)-D-galacturonic acid amine]

solubility in H2O [3]: 0%
Molecule: CCCCCCCCCCCCN(C)C[C@H](O)[C@@H](O)[C@H](O)[C@H](O)CO [Compound 50, 1-(N-methyl-N-dodecyl)-D-glucosamine]

Source: patent US20260008801A1, “BIO-BASED SURFACTANTS DERIVED FROM CARBOHYDRATES” (COÖPERATIE KONINKLIJKE COSUN U.A., priority 2022, published 2026)
